Earlier results as cited in patent publication US20260130395A1, “Water Dispersible Botanical Compositions” (Aquila Black Limited, priority 2021, published 2026).

Molecular target: T1, 5-HT3 serotonin receptor (Homo sapiens, UniProt P46098)
T1 sequence (P46098 24-478): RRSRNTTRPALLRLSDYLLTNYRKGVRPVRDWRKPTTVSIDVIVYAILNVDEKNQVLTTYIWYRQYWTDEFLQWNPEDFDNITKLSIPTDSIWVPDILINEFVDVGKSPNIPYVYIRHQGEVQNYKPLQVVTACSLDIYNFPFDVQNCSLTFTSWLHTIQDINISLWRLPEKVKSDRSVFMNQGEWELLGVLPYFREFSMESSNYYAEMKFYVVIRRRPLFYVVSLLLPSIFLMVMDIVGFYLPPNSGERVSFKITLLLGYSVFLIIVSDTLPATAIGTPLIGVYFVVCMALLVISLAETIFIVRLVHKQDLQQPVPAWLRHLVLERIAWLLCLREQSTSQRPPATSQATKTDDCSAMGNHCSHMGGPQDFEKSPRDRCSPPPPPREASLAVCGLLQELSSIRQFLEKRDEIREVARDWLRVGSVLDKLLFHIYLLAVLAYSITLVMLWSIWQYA
Details: Nebrisi et al. 2020, Front. Pharmacol. 11:1274; cited from earlier work

COc1cc(CNC(=O)CCCC/C=C/C(C)C)ccc1O [capsaicin]
mode of action at the 5-HT3 serotonin receptor: negative allosteric modulator
